# Results as given in the supplement of paper PMC10307832.
# Experiments:
# Assay in all cases: relative viability (nuclei count vs DMSO), 5 days (fraction); higher = more cells survive
# IMD-0354 + OSI-027 = compound: O=C(Nc1cc(C(F)(F)F)cc(C(F)(F)F)c1)c1cc(Cl)ccc1O [IMD-0354] + COc1cccc2cc(-c3nc([C@H]4CC[C@H](C(=O)O)CC4)n4ncnc(N)c34)[nH]c12 [OSI-027] (partner 0.5 µM)
# Summary of the method: (§1)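 Lung cancer cell lines were seeded in 1536-well plates and dosed by pin tool the next day, with either a single drug or a fixed anchor-drug dose combined with five library-drug doses (not always all listed) spaced in √10 steps. Five days later, one step fixed the cells and stained their nuclei (final 0.05% Triton X-100, 1% formaldehyde, 1 ug/ml Hoechst), and nuclei were counted on 4× images. Relative viability is the nuclei count in treated wells divided by the count in vehicle wells, and each value is the median of duplicate plates.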
# IMD-0354 + Linsitinib = compound: O=C(Nc1cc(C(F)(F)F)cc(C(F)(F)F)c1)c1cc(Cl)ccc1O [IMD-0354] + C[C@]1(O)C[C@@H](c2nc(-c3ccc4ccc(-c5ccccc5)nc4c3)c3c(N)nccn32)C1 [Linsitinib] (partner 1 µM)
# Summary of the method: as §1
# IMD-0354 + Alpelisib = compound: O=C(Nc1cc(C(F)(F)F)cc(C(F)(F)F)c1)c1cc(Cl)ccc1O [IMD-0354] + Cc1nc(NC(=O)N2CCC[C@H]2C(N)=O)sc1-c1ccnc(C(C)(C)C(F)(F)F)c1 [Alpelisib] (partner 2 µM)
# Summary of the method: as §1
# IMD-0354 + Vorinostat = compound: O=C(Nc1cc(C(F)(F)F)cc(C(F)(F)F)c1)c1cc(Cl)ccc1O [IMD-0354] + O=C(CCCCCCC(=O)Nc1ccccc1)NO [Vorinostat] (partner 1 µM)
# Summary of the method: as §1
Cell Line,relative viability (IMD-0354 + OSI-027; first compound 0.04 µM),relative viability (IMD-0354 + OSI-027; first compound 0.1265 µM),relative viability (IMD-0354 + OSI-027; first compound 0.4 µM),relative viability (IMD-0354 + OSI-027; first compound 1.265 µM),relative viability (IMD-0354 + OSI-027; first compound 4 µM),relative viability (IMD-0354 + Linsitinib; first compound 0.04 µM),relative viability (IMD-0354 + Linsitinib; first compound 0.1265 µM),relative viability (IMD-0354 + Linsitinib; first compound 0.4 µM),relative viability (IMD-0354 + Linsitinib; first compound 1.265 µM),relative viability (IMD-0354 + Linsitinib; first compound 4 µM),relative viability (IMD-0354 + Alpelisib; first compound 0.04 µM),relative viability (IMD-0354 + Alpelisib; first compound 0.1265 µM),relative viability (IMD-0354 + Alpelisib; first compound 0.4 µM),relative viability (IMD-0354 + Alpelisib; first compound 1.265 µM),relative viability (IMD-0354 + Alpelisib; first compound 4 µM),relative viability (IMD-0354 + Vorinostat; first compound 0.04 µM),relative viability (IMD-0354 + Vorinostat; first compound 0.1265 µM),relative viability (IMD-0354 + Vorinostat; first compound 0.4 µM),relative viability (IMD-0354 + Vorinostat; first compound 1.265 µM),relative viability (IMD-0354 + Vorinostat; first compound 4 µM)
LC-2-ad,0.827,0.852,0.441,0.298,0.193,1.02,0.844,0.369,0.108,0.123,0.979,0.835,0.397,0.106,0.115,0.732,0.691,0.394,0.193,0.169
CAL-12T,0.807,0.463,0.385,0.193,0.17,0.771,0.754,0.895,0.152,0.164,1.49,1.31,0.596,0.267,0.173,1.1,0.912,0.411,0.25,0.227
RERF-LC-KJ,0.649,0.628,0.493,0.198,0.214,0.948,0.944,0.66,0.298,0.208,0.823,0.71,0.586,0.404,0.303,0.775,0.677,0.542,0.167,0.172
NCI-H1650,0.704,0.491,0.362,0.189,0.259,–,–,–,–,–,–,–,–,–,–,0.541,0.724,0.377,0.199,0.193
BEN,0.306,0.301,0.264,0.311,0.195,0.929,0.771,0.537,0.435,0.256,1.11,0.915,0.498,0.442,0.245,0.586,0.667,0.48,0.441,0.391
EMC-BAC-2,0.403,0.386,0.33,0.336,0.3,0.909,0.825,0.549,0.801,0.207,0.796,0.766,0.448,0.611,0.25,0.547,0.473,0.419,–,0.439
LU99A,0.351,0.286,0.246,0.259,0.196,0.553,0.527,0.398,0.452,0.147,0.517,0.493,0.345,0.247,0.195,0.417,0.498,0.375,0.2,0.162
NCI-H1299,–,–,–,–,–,0.933,0.895,0.839,0.168,0.158,1.01,1.02,0.709,0.276,0.194,–,–,–,–,–
EBC-1,–,–,–,–,–,0.845,0.703,0.741,0.113,0.164,0.882,0.788,0.559,0.174,0.227,–,–,–,–,–
NCI-H2342,0.723,0.659,0.499,0.472,0.482,–,–,–,–,–,–,–,–,–,–,0.769,0.853,0.53,0.697,0.364
NCI-H1792,0.791,0.701,0.35,0.394,0.418,0.627,0.424,0.906,0.471,0.293,0.822,0.506,0.874,0.677,0.336,–,–,–,–,–
ChaGo-K-1,0.725,0.514,0.384,0.269,0.232,–,–,–,–,–,–,–,–,–,–,0.851,0.741,0.519,0.244,0.255
NCI-H2170,0.764,0.673,0.475,0.547,0.231,–,–,–,–,–,0.752,0.785,0.603,0.835,0.373,0.859,0.89,0.573,0.74,0.231
A549,–,–,–,–,–,0.782,0.581,0.264,0.439,0.0949,0.776,0.695,0.509,0.0677,0.0557,–,–,–,–,–
NCI-H1563,0.775,0.769,0.66,0.297,0.413,1.25,1.06,1.11,0.784,0.457,0.875,0.889,0.886,0.726,0.399,–,–,–,–,–
SW 900,0.64,0.674,0.308,0.263,0.248,–,–,–,–,–,–,–,–,–,–,0.496,0.554,0.243,0.227,0.265
IA-LM,–,–,–,–,–,0.653,0.486,0.745,0.0945,0.16,0.806,0.617,0.634,0.106,0.178,0.89,0.737,0.397,1.11,0.681
NCI-H1703,–,–,–,–,–,1.38,0.583,0.888,0.125,0.141,0.312,0.269,0.282,0.179,0.121,–,–,–,–,–
NCI-H1648,–,0.27,0.287,0.244,0.278,–,–,–,–,–,–,–,–,–,–,0.303,0.694,0.289,0.617,0.3
